# Data: patent US20240374626A1, “METHODS OF ENHANCING MILK PRODUCTION IN LACTATING MAMMALIAN SUBJECTS” (priority 2023, published 2024)
# Columns and labels:
# Type in all cases: in vivo, mouse
# [1] = tested on: Wee1; assay: Contralateral intraductal injection: Wee1 expression in whole MG tissue by RT-qPCR; conditions: IDI of hydroxyurea into pregnant MG vs contralateral PBS
# Description: (§1) Nulliparous analysis was performed using adult (10-12-week-old) female mice. For timed pregnancies and lactation analysis, CD-1 pregnant adult females were obtained from Charles Rivers. Embryos were examined at the time of mammary gland harvesting to confirm pregnancy state. […] Plugged mice were considered to be PD0.5 on the day of the observed plug. All females used in this study were age matched.
# (§2) Mice were anesthetized with isoflurane (VetOne, 501017) Prior to intraductal injections, hair was removed from around the nipples using Nair hair remover. Injections into the duct of the nipple were performed with 33 G needles (Hamilton, 7803-05) and a volume of 40 μl per gland. […]
# For RNA isolation from FACS purified populations, mammary gland cell suspensions were blocked using Mouse BD Fc Block™ (BD Biosciences) for 10 min. […] Total RNA quality was analyzed by agarose gel electrophoresis and quantified using an ND-1000 spectrophotometer (NanoDrop). cDNA was prepared from 500-1000 ng of total RNA using iScript cDNA synthesis kit (Bio-Rad, 1708841). Quantitative RT-qPCR was performed in triplicates using SsoAdvanced Universal SYBR Green Supermix, (Bio-Rad, 1725272). […]
# [2] = tested on: CK8+ luminal cells; assay: Contralateral intraductal injection: FACS DNA content analysis of CK8+ luminal cells; conditions: Hydroxyurea IDI at PD8.5 and PD12.5 vs contralateral PBS, by LD5
# [3] = tested on: γH2AX; assay: Contralateral intraductal injection: γH2AX IHC in CK8+ luminal cells of MG; conditions: Hydroxyurea IDI at PD8.5 and PD12.5 vs contralateral PBS, at PD13.5
# Description: as §1
# (§3) Mice were anesthetized with isoflurane (VetOne, 501017) Prior to intraductal injections, hair was removed from around the nipples using Nair hair remover. Injections into the duct of the nipple were performed with 33 G needles (Hamilton, 7803-05) and a volume of 40 μl per gland. Right inguinal, abdominal and thoracic glands were injected with doxorubicin (1.5 μg per gland, Cayman Chemical, 15007), nucleosides (40 μl per gland, Millipore-Sigma, ES-008-D) or Mk-1775 (50 μg per gland, Cayman Chemical, 21266), and left glands were injected with PBS or DMSO (Thermo Scientific, BP231) diluted in PBS.
# (§4) Mammary gland tissue was fixed in 10% neutral buffered formalin (EMD Millipore, MR0458682) at 4° C. overnight. Fixation was quenched using 0.2% glycine (Fisher Scientific, BP381) in PBS, for 1 h at room temperature. […] Integrated density of nuclear γH2AX and pATR was quantified using ImageJ.
# [4] = tested on: Csn2; assay: Contralateral intraductal injection: Csn2 expression in MGs by RT-qPCR; conditions: Hydroxyurea IDI at PD8.5 and PD12.5 vs contralateral PBS, LD2 MGs
# Description: as §1, §3
# For RNA isolation from FACS purified populations, mammary gland cell suspensions were blocked using Mouse BD Fc Block™ (BD Biosciences) for 10 min. Cells were subsequently resuspended on 1×PBS at a density of 10^7 cells/ml and stained with the following antibodies for 30 min on ice: anti-CD24 PE (Stem Cell Technologies, 60099PE.1), anti-CD29 PE-Cy7 (BioLegend, 102222), anti-CD45-APC (BioLegend,105826), Ter119-APC (BD Biosciences, 561033), CD31-ACP (BD Biosciences, 551262). Propidium iodide at a final concentration of 0.5 μg/ml was used for the discrimination of dead cells. Stromal, basal and luminal mammary populations were sorted using a BD FACS Aria II Cell Sorter. […] Total RNA quality was analyzed by agarose gel electrophoresis and quantified using an ND-1000 spectrophotometer (NanoDrop). cDNA was prepared from 500-1000 ng of total RNA using iScript cDNA synthesis kit (Bio-Rad, 1708841). Quantitative RT-qPCR was performed in triplicates using SsoAdvanced Universal SYBR Green Supermix, (Bio-Rad, 1725272). […]
# [5] = tested on: pATR; assay: Contralateral intraductal injection: pATR IHC in CK8+ luminal cells of MG; conditions: Hydroxyurea IDI at PD8.5 and PD12.5 vs contralateral PBS, at PD13.5
# Description: as §1, §3, §4
# [6] = tested on: MG alveoli; assay: Contralateral intraductal injection: milk staining (IHC) integrated density per alveolus; conditions: Hydroxyurea IDI at PD8.5 and PD12.5 vs contralateral PBS, LD2 MG section
# Description: as §1, §2
# Mammary gland tissue was fixed in 10% neutral buffered formalin (EMD Millipore, MR0458682) at 4° C. overnight. […] Incubation with secondary antibodies [(donkey anti-Rat 647 (Thermo-Invitrogen; A48272) and donkey anti-Rabbit 488 (Thermo-Invitrogen; A32790)] was performed for 2 h at room temperature. Sections were washed with 0.3% triton in PBS for 30 min (×3) at room temperature and mounted using flouromount-G (Southern Biotech, 0100-01). Image acquisition was performed using Zeiss Axio Imager Microscope. Macros were generated to quantify lumen milk integrated density per alveolus using Image J.
smiles,measurement,setting,value
NC(=O)NO [Hydroxyurea],"Wee1 expression in whole MG tissue, RT-qPCR",[1],upregulated
same,decrease in 2C CK8+ population (in the overall population),[2],5.5%
same,increase in 4C CK8+ population (in the overall population),[2],2%
same,increase in >4C CK8+ population (in the overall population),[2],48%
same,γH2AX in CK8+ population,[3],increased
same,"Csn2 expression, RT-qPCR",[4],increase
same,pATR in CK8+ population,[5],increased
same,increase in milk (average integrated density of milk staining among alveoli),[6],~15%
